Experimental data from ChEMBL document CHEMBL6134819, “Discovery of novel tranylcypromine-indazole-based derivatives as LSD1 inhibitors for acute myeloid leukemia treatment” (Eur J Med Chem, 2025).
The source made the active and inactive calls. No cut-off for these calls is given here.

How the values were obtained:
HL-60 = test: Antiproliferative activity against human HL-60 cells assessed as inhibition of cell growth measured after 7 days by cell-titer glo assay; type: functional, cell-based; settings: HL-60, 168 h
[1] = target: T1, Amine oxidase [flavin-containing] A (Homo sapiens, UniProt P21397); test: Inhibition of human N-terminal Flag-tagged MAOA extracted baculovirus infected in Sf9 cells measured after 0.5 hrs by MAO-Glo Assay
T1 sequence (P21397 whole entry): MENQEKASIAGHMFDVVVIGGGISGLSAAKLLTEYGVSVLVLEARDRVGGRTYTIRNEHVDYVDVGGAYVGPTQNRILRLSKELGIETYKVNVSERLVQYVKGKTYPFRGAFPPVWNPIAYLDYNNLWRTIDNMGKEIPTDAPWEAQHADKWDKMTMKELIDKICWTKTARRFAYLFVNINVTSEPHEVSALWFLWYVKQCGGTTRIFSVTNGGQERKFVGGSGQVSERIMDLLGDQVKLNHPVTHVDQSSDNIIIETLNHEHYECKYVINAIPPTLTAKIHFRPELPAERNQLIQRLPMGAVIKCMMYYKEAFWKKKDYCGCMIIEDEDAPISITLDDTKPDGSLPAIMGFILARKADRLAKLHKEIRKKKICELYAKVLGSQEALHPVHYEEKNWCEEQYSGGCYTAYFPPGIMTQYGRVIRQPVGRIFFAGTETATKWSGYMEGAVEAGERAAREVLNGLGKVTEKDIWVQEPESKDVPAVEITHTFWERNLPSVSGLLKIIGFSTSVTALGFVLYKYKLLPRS

MV4-11 [2] = test: Induction of apoptosis in human MV4-11 cells assessed as increase in late apoptosis measured after 48 hrs by Annexin V-FITC/PI double staining based flow cytometry analysis; type: functional, cell-based; settings: dose 2-4 µmol/L
MV4-11 [3] = test: Induction of apoptosis in human MV4-11 cells measured after 48 hrs by Annexin V-FITC/PI double staining based flow cytometry analysis; type: functional, cell-based; settings: dose 2-4 µmol/L
[4] = Oral bioavailability in male Sprague-Dawley rat at 10 mg/kg measured up to 24 hrs by LC-MS/MS analysis; type: ADME, organism-based; settings: in vivo
MV4-11 [5] = test: Induction of apoptosis in human MV4-11 cells assessed as necrotic cells at 2 micromol/L measured after 48 hrs by Annexin V-FITC/PI double staining based flow cytometry analysis (reference value: 1.16 %); type: functional; settings: dose 2 µmol/L, at 2 µM
MV4-11 [6] = test: Induction of apoptosis in human MV4-11 cells assessed as increase in cleaved PARP level at 2 to 4 micromol/L measured after 72 hrs by Western blot analysis; type: functional, cell-based; settings: dose 2-4 µmol/L
MV4-11 [7] = test: Induction of apoptosis in human MV4-11 cells assessed as late apoptotic cells at 2 micromol/L measured after 48 hrs by Annexin V-FITC/PI double staining based flow cytometry analysis (reference value: 7.70 %); type: functional; settings: dose 2 µmol/L, at 2 µM
MV4-11 [8] = test: Induction of apoptosis in human MV4-11 cells assessed as increase in cleaved caspase-7 level at 2 to 4 micromol/L measured after 72 hrs by Western blot analysis; type: functional, cell-based; settings: dose 2-4 µmol/L
MV4-11 [9] = test: Induction of apoptosis in human MV4-11 cells assessed as increase in early apoptosis measured after 48 hrs by Annexin V-FITC/PI double staining based flow cytometry analysis; type: functional, cell-based; settings: dose 2-4 µmol/L
[10] = Octanol-water partition coefficient, logP of the compound; type: physicochemical
MV4-11 [11] = test: Induction of apoptosis in human MV4-11 cells assessed as early apoptotic cells at 2 micromol/L measured after 48 hrs by Annexin V-FITC/PI double staining based flow cytometry analysis (reference value: 2.01 %); type: functional; settings: dose 2 µmol/L, at 2 µM
[12] = Metabolic stability in mouse liver microsomes assessed as intrinsic clearance measured up to 60 mins in presence of NADPH by LC-MS/MS analysis; type: ADME, Microsome; settings: read-out: CLH
[13] = Metabolic stability in human liver microsomes assessed as half life measured up to 60 mins in presence of NADPH by LC-MS/MS analysis; type: ADME, Microsome
MV4-11 [14] = test: Induction of apoptosis in human MV4-11 cells assessed as viable cells at 3 micromol/L measured after 48 hrs by Annexin V-FITC/PI double staining based flow cytometry analysis (reference value: 89.13%); type: functional; settings: MV4-11, 48 h, dose 3 µmol/L, read-out: Activity
[15] = Metabolic stability in rat liver microsomes assessed as half life measured up to 60 mins in presence of NADPH by LC-MS/MS analysis; type: ADME, Microsome
[16] = Half life in male Sprague-Dawley rat at 1 mg/kg, iv measured up to 24 hrs by LC-MS/MS analysis; type: ADME, organism-based; settings: in vivo
MV4-11 [17] = test: Induction of apoptosis in human MV4-11 cells assessed as early apoptotic cells at 4 micromol/L measured after 48 hrs by Annexin V-FITC/PI double staining based flow cytometry analysis (reference value: 2.01 %); type: functional; settings: dose 4 µmol/L, at 4 µM
[18] = AUC (0 to infinity) in male Sprague-Dawley rat at 10 mg/kg, po measured up to 24 hrs by LC-MS/MS analysis; type: ADME, organism-based; settings: in vivo
THP-1 = test: Antiproliferative activity against human THP-1 cells assessed as inhibition of cell growth measured after 7 days by cell-titer glo assay; type: functional, cell-based; settings: THP-1, 168 h
[19] = AUC (0 to infinity) in male Sprague-Dawley rat at 1 mg/kg, iv measured up to 24 hrs by LC-MS/MS analysis; type: ADME, organism-based; settings: in vivo
[20] = target: T2, Lysine-specific histone demethylase 1A (Homo sapiens, UniProt O60341); test: Inhibition of LSD1 in human MV4-11 cells assessed as increase in H3K4 expression level at 2 to 4 micromol/L measured after 48 hrs by Western blot analysis; type: cell-based; settings: dose 2-4 µmol/L
[21] = Metabolic stability in human liver microsomes assessed as intrinsic clearance measured up to 60 mins in presence of NADPH by LC-MS/MS analysis; type: ADME, Microsome; settings: read-out: CLH
[22] = AUC (0 to t) in male Sprague-Dawley rat at 10 mg/kg, po measured up to 24 hrs by LC-MS/MS analysis; type: ADME, organism-based; settings: in vivo
MV4-11 [23] = test: Antiproliferative activity against human MV4-11 cells assessed as inhibition of cell growth measured after 7 days by cell-titer glo assay; type: functional, cell-based; settings: MV4-11, 168 h
MV4-11 [24] = test: Induction of apoptosis in human MV4-11 cells assessed as viable cells at 4 micromol/L measured after 48 hrs by Annexin V-FITC/PI double staining based flow cytometry analysis (reference value: 89.13%); type: functional; settings: MV4-11, 48 h, dose 4 µmol/L, read-out: Activity
[25] = Cmax in male Sprague-Dawley rat at 10 mg/kg, po measured up to 24 hrs by LC-MS/MS analysis; type: ADME, organism-based; settings: in vivo
[26] = target: Voltage-gated inwardly rectifying potassium channel KCNH2 (Homo sapiens, UniProt Q12809); test: Inhibition of human ERG by whole cell patch clamp assay; type: toxicity
[27] = target: T2, Lysine-specific histone demethylase 1A; test: Inhibition of LSD1 in human MV4-11 cells assessed as increase in H3K4me1 expression level at 2 to 4 micromol/L measured after 48 hrs by Western blot analysis; type: cell-based; settings: dose 2-4 µmol/L
MV4-11 [28] = test: Induction of apoptosis in human MV4-11 cells assessed as necrotic cells at 4 micromol/L measured after 48 hrs by Annexin V-FITC/PI double staining based flow cytometry analysis (reference value: 1.16 %); type: functional; settings: dose 4 µmol/L, at 4 µM
[29] = target: T2, Lysine-specific histone demethylase 1A; test: Inhibition of LSD1 in human MV4-11 cells assessed as increase in LSD1 protein level at 2 to 4 micromol/L measured after 48 hrs by Western blot analysis; type: cell-based; settings: dose 2-4 µmol/L

Chain of Voltage-gated inwardly rectifying potassium channel KCNH2 (Q12809 whole entry): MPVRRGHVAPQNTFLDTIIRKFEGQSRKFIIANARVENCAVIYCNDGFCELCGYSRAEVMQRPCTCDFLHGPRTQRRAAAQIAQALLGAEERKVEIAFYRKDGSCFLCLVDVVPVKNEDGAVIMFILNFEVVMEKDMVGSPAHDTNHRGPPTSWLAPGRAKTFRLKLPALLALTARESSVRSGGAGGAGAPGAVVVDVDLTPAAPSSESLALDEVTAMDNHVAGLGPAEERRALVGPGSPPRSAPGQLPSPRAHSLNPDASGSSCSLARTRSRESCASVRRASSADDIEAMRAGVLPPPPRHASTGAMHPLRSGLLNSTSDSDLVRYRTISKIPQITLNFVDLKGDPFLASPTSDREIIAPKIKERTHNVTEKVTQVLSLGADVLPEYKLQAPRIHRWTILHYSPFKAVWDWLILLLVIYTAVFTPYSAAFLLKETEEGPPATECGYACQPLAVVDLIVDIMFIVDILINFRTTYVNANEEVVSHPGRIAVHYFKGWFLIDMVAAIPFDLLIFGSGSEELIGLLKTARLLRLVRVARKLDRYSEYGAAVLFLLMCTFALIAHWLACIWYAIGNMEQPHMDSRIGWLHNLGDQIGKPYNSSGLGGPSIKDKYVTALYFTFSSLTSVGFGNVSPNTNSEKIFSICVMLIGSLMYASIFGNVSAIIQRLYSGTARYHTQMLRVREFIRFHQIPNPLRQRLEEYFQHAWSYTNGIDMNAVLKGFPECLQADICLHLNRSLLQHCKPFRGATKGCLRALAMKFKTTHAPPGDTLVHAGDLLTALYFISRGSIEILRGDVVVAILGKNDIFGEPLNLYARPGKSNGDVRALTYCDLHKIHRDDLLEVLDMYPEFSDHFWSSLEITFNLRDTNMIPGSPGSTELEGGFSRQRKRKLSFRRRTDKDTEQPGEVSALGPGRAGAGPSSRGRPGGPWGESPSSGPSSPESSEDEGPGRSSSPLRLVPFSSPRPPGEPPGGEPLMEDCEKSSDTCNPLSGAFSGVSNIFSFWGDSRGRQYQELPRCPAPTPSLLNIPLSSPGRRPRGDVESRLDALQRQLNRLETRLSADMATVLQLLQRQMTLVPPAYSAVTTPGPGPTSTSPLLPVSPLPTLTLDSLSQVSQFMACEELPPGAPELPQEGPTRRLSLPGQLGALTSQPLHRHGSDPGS

SMILES: Cl.O=S(=O)(c1ccccc1)n1ncc2cc(-n3cc(CN[C@@H]4C[C@H]4c4ccc(F)c(F)c4)nn3)ccc21
- IC50 (HL-60): 1.4 µM
- IC50 [1]: 0.84 µM
- Activity (MV4-11 [2]): Dose-dependent-effect
- Activity (MV4-11 [3]): Dose-dependent-effect
- bioavailability [4]: 6.01%
- Activity (MV4-11 [5]): 3.32%
- Activity (MV4-11 [6]): Active
- Activity (MV4-11 [7]): 13.76%
- Activity (MV4-11 [8]): Active
- Activity (MV4-11 [9]): Dose-dependent-effect
- logP [10]: 4.2
- Activity (MV4-11 [11]): 2.52%
- CLint scaled [12]: 15.7 L/h/kg
- half-life [13]: 11.6 min
- viability at 3 µM (MV4-11 [14]): 80.8%
- half-life [15]: 3.94 min
- half-life [16]: 41.4 min
- Activity (MV4-11 [17]): 4.28%
- AUC(0-inf) [18]: 0.29 µg·h/mL
- IC50 (THP-1): 1.96 µM
- AUC(0-inf) [19]: 0.483 µg·h/mL
- inhibition [20]: Active
- CLint scaled [21]: 6.48 L/h/kg
- AUC(0-t) at 24 h [22]: 0.28 µg·h/mL
- IC50 (MV4-11 [23]): 1.4 µM
- viability at 4 µM (MV4-11 [24]): 77.4%
- Cmax [25]: 0.0898 µg/mL
- IC50 [26]: 0.576 µM
- inhibition [27]: Active
- Activity (MV4-11 [28]): 2.91%
- inhibition [29]: Active
